Data taken from the NIST ThermoML archive (doi:10.1007/s10765-013-1546-4).
± gives the expanded uncertainty stated by the source.

Conditions: Liquid; for viscosity: Vibrating wire viscometry; for vapor or sublimation pressure: Closed cell (Static) method

CCF [fluoroethane]
viscosity [mPa·s]
Conditions	5000 kPa	10000 kPa	15000 kPa	20000 kPa	25000 kPa	30000 kPa
243.17 K	0.232 ± 0.0073	0.2433 ± 0.0075	0.2538 ± 0.0078	0.2643 ± 0.008	0.2748 ± 0.0082	0.285 ± 0.0085
253.16 K	0.2037 ± 0.0066	0.2128 ± 0.0068	0.2214 ± 0.007	0.2315 ± 0.0073	0.2396 ± 0.0074	0.2489 ± 0.0076
263.17 K	0.1834 ± 0.0062	0.1926 ± 0.0064	0.2012 ± 0.0066	0.2097 ± 0.0068	0.2177 ± 0.0069	0.2262 ± 0.0071
273.15 K	0.1642 ± 0.0058	0.1729 ± 0.006	0.1812 ± 0.0062	0.1894 ± 0.0063	0.1971 ± 0.0065	0.205 ± 0.0067
283.15 K	0.147 ± 0.0055	0.1553 ± 0.0056	0.1637 ± 0.0058	0.1713 ± 0.006	0.1794 ± 0.0061	0.1868 ± 0.0063
293.15 K	0.1322 ± 0.0052	0.1406 ± 0.0054	0.1489 ± 0.0055	0.1566 ± 0.0057	0.1642 ± 0.0058	0.1717 ± 0.006
303.15 K	0.1196 ± 0.005	0.1279 ± 0.0051	0.136 ± 0.0053	0.1437 ± 0.0054	0.1512 ± 0.0056	0.1584 ± 0.0057
313.14 K	0.1078 ± 0.0048	0.1164 ± 0.0049	0.1242 ± 0.005	0.132 ± 0.0052	0.1393 ± 0.0053	0.1468 ± 0.0055
323.16 K	0.0968 ± 0.0046	0.1054 ± 0.0047	0.1134 ± 0.0049	0.1209 ± 0.005	0.1282 ± 0.0051	0.1356 ± 0.0053
333.16 K	0.0866 ± 0.0044	0.0958 ± 0.0046	0.1039 ± 0.0047	0.1113 ± 0.0048	0.1181 ± 0.0049	0.1247 ± 0.0051
343.16 K	0.0766 ± 0.0043	0.0866 ± 0.0044	0.0953 ± 0.0046	0.1027 ± 0.0047	0.1094 ± 0.0048	0.1159 ± 0.0049
353.16 K	0.0666 ± 0.0041	0.0782 ± 0.0043	0.0871 ± 0.0044	0.0946 ± 0.0045	0.1014 ± 0.0047	0.108 ± 0.0048
363.16 K	0.0562 ± 0.0041	0.0699 ± 0.0042	0.0796 ± 0.0043	0.0873 ± 0.0044	0.0943 ± 0.0045	0.1005 ± 0.0046

Conditions	vapor or sublimation pressure [kPa]	viscosity [mPa·s]
243.17 K	140 ± 120	0.2238 ± 0.0071
253.16 K	210 ± 120	0.1961 ± 0.0065
263.17 K	310 ± 120	0.175 ± 0.006
273.15 K	440 ± 120	0.1565 ± 0.0057
283.15 K	600 ± 120	0.1395 ± 0.0053
293.15 K	810 ± 120	0.1247 ± 0.0051
303.15 K	1060 ± 120	0.1122 ± 0.0048
313.14 K	1360 ± 120	0.1003 ± 0.0046
323.16 K	1730 ± 120	0.0902 ± 0.0045
333.16 K	2170 ± 120	0.0803 ± 0.0043
343.16 K	2680 ± 120	0.0708 ± 0.0042
353.16 K	3280 ± 120	0.0614 ± 0.0041
363.16 K	3990 ± 120	0.0514 ± 0.0041
